The IC50 is the concentration at which inhibition is half-maximal.

For 13 compounds, IC50 results are on record in patent publication US8591878B2, “Therapeutic compounds” (Merck Sharp & Dohme Corp., priority 2008, dated 2013).

The structures appear in SMILES notation.

One assay has as its system subgenomic HCV replicon in Huh-7 cells. As to the kind of experiment: Cell-Based HCV Replication Assay (replicon, NS3 Cell-ELISA). The settings on record: Hepatitis C virus, Huh-7, 96 h, read-out: Cell based HCV Replication Assay-IC50. On the set-up: species or system hepatitis C virus (HCV). The text has this: Another suitable assay is the cellular Replicon or rheplisa assay described as follows:
Cell-Based HCV Replication Assay
Cell clones that stably maintain subgenomic HCV replicon were obtained by transfecting Huh-7 cells with an RNA replicon identical to I377neo/NS3-3′/wt described by V. Lohmann et al., 285 SCIENCE 110 (Jul. 2, 1999) (EMBL-GENBANK No. AJ242652), followed by selection with neomycin sulfate (G418). Viral replication was monitored by measuring the expression of the NS3 protein by an ELISA assay performed directly on cells grown in 96-well microtiter plates (Cell-ELISA) using the anti-NS3 monoclonal antibody 10E5/24 (as described in International Patent Application Publication WO 02/59321). Cells were seeded into 96 well plates at a density of 10^4 cells per well in a final volume of 0.1 ml of DMEM/10% FCS. Two hours after plating, 50 μl of DMEM/10% FCS containing a 3× concentration of inhibitor were added, cells were incubated for 96 hours and then fixed for 10 minutes with ice-cold isopropanol. Each condition was tested in duplicate and average absorbance values were used for calculations. The cells were washed twice with PBS, blocked with 5% non-fat dry milk in PBS+0.1% TRITON X-100+0.02% SDS (PBSTS) and then incubated o/n at 4° C. with the 10E5/24 mab diluted in Milk/PBSTS. After washing 5 times with PBSTS, the cells were incubated for 3 hours at room temperature with Fe-specific anti-mouse IgG conjugated to alkaline phosphatase (Sigma), diluted in Milk/PBSTS. After washing again as above, the reaction was developed with p-nitrophenyl phosphate disodium substrate (Sigma) and the absorbance at 405/620 nm read at intervals. For calculations, we used data sets where samples incubated without inhibitors had absorbance values comprised between 1 and 1.5. The inhibitor concentration that reduced by 50% the expression of NS3 (IC50) was calculated by fitting the data to the Hill equation, Fraction inhibition=1−(Ai−b)/(A0−b)=[I]^n/([I]+IC50) where: • Ai=absorbance value of HBI10 cells supplemented with the indicated inhibitor concentration. • A0=absorbance value of HBI10 cells incubated without inhibitor. • b=absorbance value of Huh-7 cells plated at the same density in the same microtiter plates and incubated without inhibitor. • n=Hill coefficient.
Background: Replicon systems follow genome replication, usually without infectious particles.
With `C=C[C@@H]1C[C@]1(NC(=O)[C@@H]1C[C@@H]2CN1C(=O)[C@H](C(C)(C)C)NC(=O)N1CCC[C@H]1CCCCc1cccc3c1CN(C3)C(=O)O2)C(=O)NS(=O)(=O)C1CC1` [Example 5, (1R,16R,23S,26S)-23-tert-butyl-N-((1R,2S)-1-{[(cyclopropylsulfonyl)amino]carbonyl}-2-vinylcyclopropyl)-3,21,24-trioxo-2-oxa-4,20,22,25-tetraazapentacyclo [23.2.1.1^4,7.0^6,11.0^16,20] nonacosa-6,8,10-triene-26-carboxamide], the half-maximal inhibitory concentration (IC50) was 170 nM.
Same read-out and setting: to `C=C[C@@H]1C[C@]1(NC(=O)[C@@H]1C[C@@H]2CN1C(=O)[C@H](C1CCCCC1)NC(=O)N1CCC[C@@H](CCCCc3cc4c(cc(-c5ccccc5)nc4cc3OC)O2)C1)C(=O)NS(=O)(=O)C1CC1` [Example 7, (3R,5S,8S,15R)-8-cyclohexyl-N-((1R,2S)-1-{[(cyclopropylsulfonyl)amino]carbonyl}-2-vinylcyclopropyl)-21-methoxy-7,10-dioxo-25-phenyl-2-oxa-6,9,11,24-tetraazapentacyclo [18.6.2.1^3,6.1^11,15.0^23,27] triaconta-1(27),20,22,23,25,27-hexaene-5-carboxamide] belongs 8 nM.
`C=C[C@@H]1C[C@]1(NC(=O)[C@@H]1C[C@@H]2CN1C(=O)[C@H](C1CCCCC1)NC(=O)N1CCC[C@H](C1)OCCCc1cc3c(nccc3cc1OC)O2)C(=O)NS(=O)(=O)C1CC1` [Example 11, (3R,5S,8S,15R)-8-cyclohexyl-N-((1R,2S)-1-{[(cyclopropylsulfonyl)amino]carbonyl}-2-vinylcyclopropyl)-21-methoxy-7,10-dioxo-2,16-dioxa-6,9,11,26-tetraazapentacyclo [18.6.2.1^3,6.1^11,15.0^23,27] triaconta-1(26),20,22,24,27-pentaene-5-carboxamide]: the IC50 amounted to 6 nM.

The assay is the same for the next values; noted with them: Hepatitis C virus; Huh-7 cells with subgenomic HCV replicon; NS3 expression by Cell-ELISA; 96 hours incubation; read-out: Cell based HCV Replication Assay-IC50.
For the compound `C=C[C@@H]1C[C@]1(NC(=O)[C@@H]1CC2CN1C(=O)[C@H](C1CCCC1)NC(=O)N1CCCC(C1)OC/C=C/Cn1cc(C)c3c4ccccc4nc(c31)O2)C(=O)NS(=O)(=O)C1CC1` (stereo in doubt) [Example 15, (3S,5S,8S,18E)-8-cyclopentyl-N-((1R,2S)-1-{[(cyclopropylsulfonyl)amino]carbonyl}-2-vinylcyclopropyl)-23-methyl-7,10-dioxo-2,16-dioxa-6,9,11,21,31-pentaazahexacyclo [19.10.1.1^3,6.1^11,15.0^24,32.0^25,30] tetratriaconta-1(31),18,22,24(32),25,27,29-heptaene-5-carboxamide], the IC50 was found to be 5 nM.
The same measure, in the same setting: to `C=CC1C[C@]1(NC(=O)[C@@H]1C[C@@H]2CN1C(=O)[C@H](C1CCCCC1)NC(=O)N1CCC(CC1)OCCC/C=C/c1cc3c(cc(OCC)nc3cc1OC)O2)C(=O)NS(=O)(=O)C1CC1` (stereo in doubt) [Example 32, (3R,5S,8S,19E)-8-cyclohexyl-N-((1R,2R)-1-{[(cyclopropylsulfonyl)amino]carbonyl}-2-vinylcyclopropyl)-26-ethoxy-22-methoxy-7,10-dioxo-2,15-dioxa-6,9,11,25-tetraazapentacyclo [19.6.2.2^11,14.1^3,6.0^24,28] dotriaconta-1(27),19,21,23,25,28-hexaene-5-carboxamide] belongs 10 nM; to `C=CC1C[C@]1(NC(=O)[C@@H]1C[C@@H]2CN1C(=O)[C@H](C1CCCCC1)NC(=O)N1CCC(CC1)OCCCCCc1cc3c(cc(OCC)nc3cc1OC)O2)C(=O)NS(=O)(=O)C1CC1` (stereo in doubt) [Example 34, (3R,5S,8S)-8-cyclohexyl-N-((1R,2R)-1-{[(cyclopropylsulfonyl)amino]carbonyl}-2-vinylcyclopropyl)-26-ethoxy-22-methoxy-7,10-dioxo-2,15-dioxa-6,9,11,25-tetraazapentacyclo [19.6.2.2^11,14.1^3,6.0^24,28] dotriaconta-1(27),21,23,25,28-pentaene-5-carboxamide], 7 nM.
Same read-out and setting: as for `C=C[C@@H]1C[C@]1(NC(=O)[C@@H]1C[C@@H]2CN1C(=O)[C@H](C(C)(C)C)NC(=O)N1CCC[C@@H]1CC/C=C/c1cccc3c1CN(C3)C(=O)O2)C(=O)NS(=O)(=O)C1CC1` [Example 3, (1R,12E,16S,23S,26S)-23-tert-butyl-N-((1R,2S)-1-{[(cyclopropylsulfonyl)amino]carbonyl}-2-vinylcyclopropyl)-3,21,24-trioxo-2-oxa-4,20,22,25-tetraazapentacyclo [23.2.1.1^4,7.0^6,11.0^16,20] nonacosa-6,8,10,12-tetraene-26-carboxamide], the figure is 16 nM.
Regarding `C=C[C@@H]1C[C@]1(NC(=O)[C@@H]1C[C@@H]2CN1C(=O)[C@H](C(C)(C)C)NC(=O)N1CCC[C@H]1CC/C=C/c1cccc3c1CN(C3)C(=O)O2)C(=O)NS(=O)(=O)C1CC1` [Example 4, (1R,12E,16R,23S,26S)-23-tert-butyl-N-((1R,2S)-1-{[(cyclopropylsulfonyl)amino]carbonyl}-2-vinylcyclopropyl)-3,21,24-trioxo-2-oxa-4,20,22,25-tetraazapentacyclo [23.2.1.1^4,7.0^6,11.0^16,20] nonacosa-6,8,10,12-tetraene-26-carboxamide], the concentration for half-maximal inhibition (IC50) worked out at 260 nM.
On the same count and under the same terms, as for `C=C[C@@H]1C[C@]1(NC(=O)[C@@H]1C[C@@H]2CN1C(=O)[C@H](C1CCCCC1)NC(=O)N1CCC[C@H](CCCCc3cc4c(cc(-c5ccccc5)nc4cc3OC)O2)C1)C(=O)NS(=O)(=O)C1CC1` [Example 6, (3R,5S,8S,15S)-8-cyclohexyl-N-((1R,2S)-1-{[(cyclopropylsulfonyl)amino]carbonyl}-2-vinylcyclopropyl)-21-methoxy-7,10-dioxo-25-phenyl-2-oxa-6,9,11,24-tetraazapentacyclo [18.6.2.1^3,6.1^11,15.0^23,27] triaconta-1(27),20,22,23,25,27-hexaene-5-carboxamide], the figure is 24 nM; as for `C=C[C@@H]1C[C@]1(NC(=O)[C@@H]1C[C@@H]2CN1C(=O)[C@H](C1CCCCC1)NC(=O)N1CCC[C@H](C1)OCCCc1cc3c(cc(-c4ccccc4)nc3cc1OC)O2)C(=O)NS(=O)(=O)C1CC1` [Example 8, (3R,5S,8S,15R)-8-cyclohexyl-N-((1R,2S)-1-{[(cyclopropylsulfonyl)amino]carbonyl}-2-vinylcyclopropyl)-21-methoxy-7,10-dioxo-25-phenyl-2,16-dioxa-6,9,11,24-tetraazapentacyclo [18.6.2.1^3,6.1^11,15.0^23,27] triaconta-1(27),20,22,23,25,27-hexaene-5-carboxamide], 5 nM; as for `C=C[C@@H]1C[C@]1(NC(=O)[C@@H]1C[C@@H]2CN1C(=O)[C@H](C1CCCCC1)NC(=O)N1CCC[C@@H](C1)OCCCc1cc3c(cc(-c4ccccc4)nc3cc1OC)O2)C(=O)NS(=O)(=O)C1CC1` [Example 9, (3R,5S,8S,15S)-8-cyclohexyl-N-((1R,2S)-1-{[(cyclopropylsulfonyl)amino]carbonyl}-2-vinylcyclopropyl)-21-methoxy-7,10-dioxo-25-phenyl-2,16-dioxa-6,9,11,24-tetraazapentacyclo [18.6.2.1^3,6.1^11,15.0^23,27] triaconta-1(27),20,22,23,25,27-hexaene-5-carboxamide], 7 nM.
`C=C[C@@H]1C[C@]1(NC(=O)[C@@H]1C[C@@H]2CN1C(=O)[C@H](C1CCCCC1)NC(=O)N1CCC[C@@H](C1)OCCCc1cc3c(nccc3cc1OC)O2)C(=O)NS(=O)(=O)C1CC1` [Example 10, (3R,5S,8S,15S)-8-cyclohexyl-N-((1R,2S)-1-{[(cyclopropylsulfonyl)amino]carbonyl}-2-vinylcyclopropyl)-21-methoxy-7,10-dioxo-2,16-dioxa-6,9,11,26-tetraazapentacyclo [18.6.2.1^3,6.1^11,15.0^23,27] triaconta-1(26),20,22,24,27-pentaene-5-carboxamide]: the 50% inhibitory concentration (IC50) is 7 nM.

Still in this assay, the particulars now being: Hepatitis C virus; Huh-7 replicon cells; NS3 expression by Cell-ELISA; 96 hours; read-out: Cell-based HCV Replication Assay: IC50.
For `C=C[C@@H]1C[C@]1(NC(=O)[C@@H]1C[C@@H]2CN1C(=O)[C@H](C1CCCCC1)NC(=O)N1CCC[C@@H](C1)OCCCc1cc3c(cc(OCC)nc3cc1OC)O2)C(=O)NS(=O)(=O)C1CC1` [Example 1, (3R,5S,8S,15S)-8-Cyclohexyl-N-((1R,2S)-1-{[(cyclopropylsulfonyl)amino]carbonyl}-2-vinylcyclopropyl)-25-ethoxy-21-methoxy-7,10-dioxo-2,16-dioxa-6,9,11,24-tetraazapentacyclo[18.6.2.1^3,6.1^11,15.0^23,27]triaconta-1(27),20,22,23,25,27-hexaene-5-carboxamide], the concentration for half-maximal inhibition (IC50) is 4 nM.
